# According to patent publication US20230348487A1, “2-AMINOPYRIMIDINE COMPOUND AND PHARMACEUTICAL COMPOSITION THEREOF AND APPLICATION THEREOF” (GUANGZHOU SALUSTIER BIOSCIENCES CO., LTD., priority 2021, published 2023):
# Like-named read-outs stand apart in the source and are kept apart here.
# Legend:
# [1] = molecular target: JAK2 (Homo sapiens (Human), UniProt O60674); test: Z′-Lyte kinase inhibitory activity test; assay type: biochemical; settings: ATP concentration Km
# How it was run: (§1)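 Compounds (10 μM top final, 3-fold, 10 points, duplicate wells) were incubated with titrated kinase, ATP and 2 μM peptide at 30 °C for 1.5 h in HEPES pH 7.5/MgCl2/EGTA/Brij-35 buffer. Development followed for 1 h; phosphorylation ratio gave kinase inhibition, experiments repeated at least thrice.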
# [2] = molecular target: JAK3 (Homo sapiens (Human), UniProt P52333); test: Z′-Lyte kinase inhibitory activity test; assay type: biochemical
# JAK3, sequence (P52333 whole entry): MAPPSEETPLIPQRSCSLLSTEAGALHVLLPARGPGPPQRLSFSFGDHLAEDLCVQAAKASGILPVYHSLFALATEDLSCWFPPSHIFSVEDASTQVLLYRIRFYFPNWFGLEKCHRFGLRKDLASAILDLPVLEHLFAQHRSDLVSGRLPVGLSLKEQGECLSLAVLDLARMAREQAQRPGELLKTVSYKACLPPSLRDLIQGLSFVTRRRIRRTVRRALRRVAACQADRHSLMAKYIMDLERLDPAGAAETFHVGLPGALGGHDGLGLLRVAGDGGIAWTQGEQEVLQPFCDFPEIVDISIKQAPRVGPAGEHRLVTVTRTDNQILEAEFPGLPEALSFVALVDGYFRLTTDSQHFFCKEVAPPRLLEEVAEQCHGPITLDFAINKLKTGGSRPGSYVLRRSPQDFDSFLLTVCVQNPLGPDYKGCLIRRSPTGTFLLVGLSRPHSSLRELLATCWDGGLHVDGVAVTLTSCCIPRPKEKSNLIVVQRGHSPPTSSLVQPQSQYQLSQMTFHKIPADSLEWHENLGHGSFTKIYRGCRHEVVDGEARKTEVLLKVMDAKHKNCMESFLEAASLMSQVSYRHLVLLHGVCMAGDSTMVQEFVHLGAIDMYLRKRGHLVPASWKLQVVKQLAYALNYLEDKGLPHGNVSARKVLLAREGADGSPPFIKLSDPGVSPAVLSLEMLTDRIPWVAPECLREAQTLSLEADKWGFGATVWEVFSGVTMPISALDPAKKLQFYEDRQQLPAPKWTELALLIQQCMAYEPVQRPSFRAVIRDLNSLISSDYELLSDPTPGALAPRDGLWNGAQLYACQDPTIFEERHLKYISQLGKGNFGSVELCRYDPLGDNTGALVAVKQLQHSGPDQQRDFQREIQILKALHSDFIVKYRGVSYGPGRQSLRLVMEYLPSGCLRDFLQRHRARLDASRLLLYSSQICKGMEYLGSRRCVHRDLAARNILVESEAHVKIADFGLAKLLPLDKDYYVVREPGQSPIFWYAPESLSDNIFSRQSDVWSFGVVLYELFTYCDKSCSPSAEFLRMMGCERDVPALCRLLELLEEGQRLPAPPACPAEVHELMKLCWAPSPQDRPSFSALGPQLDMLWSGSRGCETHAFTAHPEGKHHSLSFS
# How it was run: as §1
# [3] = molecular target: JAK1 (Homo sapiens (Human), UniProt P23458); test: Z′-Lyte kinase inhibitory activity test; assay type: biochemical; settings: ATP concentration Km
# JAK1, sequence (P23458 whole entry): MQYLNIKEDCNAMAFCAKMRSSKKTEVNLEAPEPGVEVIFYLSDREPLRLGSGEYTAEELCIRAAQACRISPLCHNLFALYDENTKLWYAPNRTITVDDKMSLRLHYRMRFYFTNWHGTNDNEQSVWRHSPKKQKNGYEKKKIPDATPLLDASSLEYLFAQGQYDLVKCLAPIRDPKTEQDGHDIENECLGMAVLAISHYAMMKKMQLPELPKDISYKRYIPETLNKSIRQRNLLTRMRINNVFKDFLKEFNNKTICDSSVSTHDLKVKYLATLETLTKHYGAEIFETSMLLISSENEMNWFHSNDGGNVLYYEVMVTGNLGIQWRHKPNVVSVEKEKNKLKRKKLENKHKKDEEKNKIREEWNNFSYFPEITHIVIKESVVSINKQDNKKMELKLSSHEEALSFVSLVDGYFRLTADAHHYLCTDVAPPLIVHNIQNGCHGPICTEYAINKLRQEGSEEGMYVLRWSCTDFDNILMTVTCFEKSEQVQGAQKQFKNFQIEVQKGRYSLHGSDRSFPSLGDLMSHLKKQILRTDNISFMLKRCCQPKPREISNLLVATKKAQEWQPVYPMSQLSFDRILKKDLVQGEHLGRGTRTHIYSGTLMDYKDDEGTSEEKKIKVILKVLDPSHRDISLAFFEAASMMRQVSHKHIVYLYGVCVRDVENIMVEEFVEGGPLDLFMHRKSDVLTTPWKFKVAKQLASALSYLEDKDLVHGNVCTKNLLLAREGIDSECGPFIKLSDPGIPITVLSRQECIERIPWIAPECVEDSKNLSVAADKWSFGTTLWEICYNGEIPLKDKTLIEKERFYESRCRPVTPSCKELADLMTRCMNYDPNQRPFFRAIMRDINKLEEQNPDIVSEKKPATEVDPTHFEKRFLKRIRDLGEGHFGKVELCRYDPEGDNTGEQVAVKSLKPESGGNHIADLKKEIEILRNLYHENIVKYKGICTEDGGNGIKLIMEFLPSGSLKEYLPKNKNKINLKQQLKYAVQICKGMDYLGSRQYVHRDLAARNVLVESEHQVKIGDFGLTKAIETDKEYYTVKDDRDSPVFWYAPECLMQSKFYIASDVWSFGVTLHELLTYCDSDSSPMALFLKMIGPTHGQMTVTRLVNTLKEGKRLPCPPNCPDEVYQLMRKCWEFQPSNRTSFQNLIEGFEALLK
# How it was run: as §1
# [4] = molecular target: TYK2 (Homo sapiens (Human), UniProt P29597); test: Z′-Lyte kinase inhibitory activity test; assay type: biochemical; settings: ATP concentration Km
# TYK2, sequence (P29597 whole entry): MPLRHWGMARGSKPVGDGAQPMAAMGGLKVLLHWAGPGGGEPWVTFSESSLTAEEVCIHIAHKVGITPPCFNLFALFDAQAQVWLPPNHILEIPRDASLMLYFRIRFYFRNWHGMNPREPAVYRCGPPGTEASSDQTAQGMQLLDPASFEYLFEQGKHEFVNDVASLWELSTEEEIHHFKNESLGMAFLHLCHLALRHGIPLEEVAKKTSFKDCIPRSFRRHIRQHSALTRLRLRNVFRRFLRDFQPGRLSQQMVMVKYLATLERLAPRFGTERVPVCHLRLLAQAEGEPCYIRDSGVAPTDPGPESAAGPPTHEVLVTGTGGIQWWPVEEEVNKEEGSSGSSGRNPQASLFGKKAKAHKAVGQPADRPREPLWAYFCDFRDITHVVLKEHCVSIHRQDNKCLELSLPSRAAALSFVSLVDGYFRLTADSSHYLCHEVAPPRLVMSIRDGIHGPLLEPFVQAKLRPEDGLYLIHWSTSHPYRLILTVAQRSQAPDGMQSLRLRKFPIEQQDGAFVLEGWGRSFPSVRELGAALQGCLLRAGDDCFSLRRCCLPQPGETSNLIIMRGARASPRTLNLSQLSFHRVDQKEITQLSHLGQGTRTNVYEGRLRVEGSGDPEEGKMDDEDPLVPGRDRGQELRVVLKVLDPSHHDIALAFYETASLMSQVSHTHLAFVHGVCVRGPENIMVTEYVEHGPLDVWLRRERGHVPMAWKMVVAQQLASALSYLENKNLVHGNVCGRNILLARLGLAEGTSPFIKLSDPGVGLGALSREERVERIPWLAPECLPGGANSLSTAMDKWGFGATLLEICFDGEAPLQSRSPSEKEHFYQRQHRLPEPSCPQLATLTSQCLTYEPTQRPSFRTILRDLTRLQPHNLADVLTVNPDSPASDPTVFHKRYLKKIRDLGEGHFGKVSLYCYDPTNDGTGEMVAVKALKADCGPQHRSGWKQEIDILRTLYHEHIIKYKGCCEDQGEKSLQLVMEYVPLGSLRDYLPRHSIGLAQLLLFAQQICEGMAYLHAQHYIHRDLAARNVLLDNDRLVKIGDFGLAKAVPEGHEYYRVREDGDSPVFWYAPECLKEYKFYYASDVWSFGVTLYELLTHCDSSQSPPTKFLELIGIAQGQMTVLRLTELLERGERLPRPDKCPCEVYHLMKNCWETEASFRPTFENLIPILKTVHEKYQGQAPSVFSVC
# How it was run: as §1
# [5] = test system: U937 cells; test: In vivo anti-tumor activity, U937 subcutaneous tumor in mice
# Experimental: Animal model: 4-6 weeks old Male CB-17 SCID mice
# U937 cells were cultured in vitro (1640+10% FBS+1% dual antibody) and amplified to 50 plates (10 cm). The cells were collected into a 50 mL centrifuge tube, centrifuged at 800 rpm for 5 minutes. The supernatant was discarded, and the cells was enriched into a 50 mL sterile centrifuge tube, washed once with PBS, and centrifuged at 800 rpm for 5 minutes. The cells were suspended with an appropriate amount of sterile PBS, counted and diluted to 2×10^7 cells/mL; 0.2 mL cells per animal were inoculated subcutaneously in the right anterior axilla of the animal (preferably inoculated before the animal is 20 g).
# 5-7 days after inoculation (Since U937 tumor grows fast, observe once every 3 days), when the tumor grew to 100-200 mm^3, the mice were grouped and administered the drugs, and excluded the animals with too large or too small tumors. The mice were randomly divided into a medication group and a solvent group, with 6 mice in each group. The initial tumor volume and body weight were recorded on the day of grouping.
# The administration cycle was 10 days, and daily administration was applied. The body weight and tumor volume of animals were measured once every 2 days. The formula for calculating tumor volume is: V=π/6*a*b*b (wherein a and b are the length and width of the tumor, respectively). The next day after the end of administration, the animal was weighed and the tumor volume was measured; and then the animal was sacrificed and the tumor was dissected to weighed. The tumor body was fixed with neutral formalin for pathological observation. Animal blood samples were collected for routine blood analysis according to experimental needs, and the main organs of the animals were collected for pathological analysis. At the end of the study, all animals were euthanized and the tumors, livers, kidneys, and lungs of […] were collected for further analysis.
# [6] = Rat liver microsomes stability test; assay type: in vitro ADME; settings: for Remaining percentage: rat liver microsomes, average value; for CLint scaled at 1 µM / half-life at 1 µM: rat, liver microsomes, pH 7.4, rat liver microsomes
# Experimental: Firstly, preheated 0.1 M potassium phosphate buffer with 5 mM MgCl2 (i.e. K/Mg buffer) at pH 7.4±0.1. Prepared the spiked solution for the tested compound and reference compound (500 μM spiked solution: added 5 μL of 10 mM stock solution into 95 μL of acetonitrile; 1.5 μM microsomal spiked solution (0.75 mg/mL): added 1.5 μL of 500 μM spiked solution and 18.75 μL of 20 mg/mL liver microsomes into 479.75 μL of K/Mg buffer). Then NADPH was dissolved in buffer K to prepare a 6 mM, 5 mg/mL NADPH stock solution. At different time points (0-, 5-, 15-, 30-, 45 minutes), 30 μL of 1.5 μM spiked solution containing 0.75 mg/mL of microsome solution was distributed onto the designated detection plate. At 0 min, 150 μL of acetonitrile containing internal standard (IS) was added to the 0 min plate well, followed by 15 μL of NADPH stock solution (6 mM). Then, all plates were pre-incubated at 37° C. for 5 minutes, added 15 μL of NADPH stock solution (6 mM), the reaction was initiated and timed. At 5 minutes, 15 minutes, 30 minutes, and 45 minutes, added 150 μL of acetonitrile solution containing IS to the corresponding wells to stop the reaction. After quenching, the plate was shaken for 10 minutes (600 rpm/min), followed by centrifugation at 6000 rpm/min for 15 minutes. 80 μL of supernatant of each well were transferred into a 96-well sample plate containing 140 μL of ultrapure water to perform LC/MS analysis. The analysis of biological samples and all samples were completed by the analysis laboratory of Medicipia Pharmaceutical Technology (Shanghai) Co., Ltd.
# JAK2, sequence (O60674 whole entry): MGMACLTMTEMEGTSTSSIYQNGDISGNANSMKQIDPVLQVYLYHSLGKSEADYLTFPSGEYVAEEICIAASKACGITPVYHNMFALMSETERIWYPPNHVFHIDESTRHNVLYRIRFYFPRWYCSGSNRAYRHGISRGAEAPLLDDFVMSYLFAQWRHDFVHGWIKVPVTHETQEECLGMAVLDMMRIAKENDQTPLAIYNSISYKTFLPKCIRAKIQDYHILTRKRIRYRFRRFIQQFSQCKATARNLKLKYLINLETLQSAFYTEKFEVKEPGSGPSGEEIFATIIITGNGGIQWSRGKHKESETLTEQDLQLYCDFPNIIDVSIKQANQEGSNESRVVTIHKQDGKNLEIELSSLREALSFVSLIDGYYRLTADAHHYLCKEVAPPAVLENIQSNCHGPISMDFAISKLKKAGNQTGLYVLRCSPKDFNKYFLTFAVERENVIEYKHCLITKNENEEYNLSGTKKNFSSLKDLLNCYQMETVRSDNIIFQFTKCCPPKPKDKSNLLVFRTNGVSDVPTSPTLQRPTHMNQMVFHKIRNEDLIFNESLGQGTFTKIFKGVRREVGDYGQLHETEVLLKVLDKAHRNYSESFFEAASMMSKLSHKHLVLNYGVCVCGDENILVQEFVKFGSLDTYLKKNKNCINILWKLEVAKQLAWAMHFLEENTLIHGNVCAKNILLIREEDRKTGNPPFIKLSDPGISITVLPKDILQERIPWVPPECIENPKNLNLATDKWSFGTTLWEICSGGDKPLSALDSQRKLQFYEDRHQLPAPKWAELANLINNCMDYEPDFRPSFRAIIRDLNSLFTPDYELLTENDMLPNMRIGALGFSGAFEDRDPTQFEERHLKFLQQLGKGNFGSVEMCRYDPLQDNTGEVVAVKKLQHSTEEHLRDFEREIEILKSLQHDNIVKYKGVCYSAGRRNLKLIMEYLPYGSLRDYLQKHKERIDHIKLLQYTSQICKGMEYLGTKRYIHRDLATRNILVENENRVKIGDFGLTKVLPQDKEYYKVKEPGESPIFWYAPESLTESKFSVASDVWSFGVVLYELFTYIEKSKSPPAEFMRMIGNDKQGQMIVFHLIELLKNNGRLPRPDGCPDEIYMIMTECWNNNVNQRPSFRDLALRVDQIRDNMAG
smiles,measurement,setting,value
C=CC(=O)Nc1cc(Nc2ncc(Cl)c(O[C@@H]3CO[C@H]4[C@@H]3OC[C@H]4OC)n2)ccc1N(C)CCN(C)C [LS 6-45],IC50,[1],2040 nM
same,IC50,[2]; ATP concentration 1 mM,1.53 nM
same,IC50,[2]; ATP concentration Km,1.25 nM
same,IC50,[3],13000 nM
same,IC50,[4],1080 nM
same,toxic side effects and body weight,"[5]; CB-17 SCID mice, during the administration period",no toxic side effects and no signs of weight loss
same,tumor growth,"[5]; U937 tumor in CB-17 SCID mice, 50 mg/kg dose group, oral bid",completely stagnant or even regressed
same,growth rate of tumors,"[5]; U937 tumor in CB-17 SCID mice, during 10 days administration, versus control group",significantly lower than that of the control group
same,"phosphorylation of JAK3, STAT3, STAT5 and cell cycle related proteins in tumor tissues (Western blot)","[5]; tumor tissues of experimental mice, compared with control group",significant inhibitory effects
same,Remaining percentage,[6]; 0 min,100.00%
same,Remaining percentage,[6]; 5 min,95.76%
same,Remaining percentage,[6]; 15 min,90.38%
same,Remaining percentage,[6]; 30 min,87.93%
same,Remaining percentage,[6]; 45 min,79.61%
same,CLint scaled at 1 µM,"[6]; calculated value below the 20.70 limit, read-out: Clint (value in parentheses)",16.6 mL/min/kg
same,half-life at 1 µM,"[6]; calculated value beyond the 120 min limit, read-out: T1/2 (value in parentheses)",2.5 h
same,CLint scaled at 1 µM,[6]; read-out: Clint,< 20.7 mL/min/kg
same,half-life at 1 µM,[6]; read-out: T1/2,> 2 h
